Measured values: patent US20180055856A1, “COMBINATION OF LOW DOSE 2-METHYLENE-19-NOR-(20S)-1ALPHA, 25-DIHYDROXYVITAMIN D3 AND CALCIMIMETICS TO TREAT SECONDARY HYPERPARATHYROIDISM” (Wisconsin Alumni Research Foundation, priority 2016, published 2018)

Assays:
vitamin D-deficient rats = assay: Serum calcium in vitamin D-deficient hyperparathyroid rats, dosing thrice weekly for nearly four weeks; format: in vivo, Sprague-Dawley rats
Protocol: Oral Formulations. Cinacalcet was weighed and mixed with ethanol (at least 21 mcL ethanol/mg cinacalcet) for approximately 10 minutes. After a clear solution was produced, the clear solution was mixed with an ethanolic solution of 2MD or vitamin D analog as a control. The two ethanolic solutions were mixed (approx. 15 min.) with Neobee oil so that there was no more than 14.1% of ethanol in the final dosing solution. Doses were delivered in a 0.75 mL/kg dose volume.
Intravenous Formulations. Etelcalcitide was weighed and mixed with propylene glycol (up to 5 mg etelcalcitide/ml propylene glycol) for approximately 1 minute. After a clear solution was produced ([…]), the clear solution was mixed with an ethanolic solution of 2MD or vitamin D analog as a control (no more than ˜0.6% ethanol in the final solution) for approximately 1 min. Doses were delivered in a 1 mL/kg dose volume.
Sprague-Dawley rats were made vitamin D-deficient and then placed on a high containing lactose (10%) and elevated levels of calcium (2%) and phosphorus (1.25%). After hyperparathyroidism was established in the rats, animals were administered cinacalcet or etelcalcitide, 2MD or the combination of the two thrice weekly for nearly four weeks. Blood was collected 48-72 hours after the last dose was given and PTH (Immutopics Intact PTH kit) and serum calcium (Perkin Elmer) measured. […]

[1] = tested on: MRL/MpJ-FAS^1pr (MRL/lpr) mouse model of systemic lupus erythematosus; details: calcitriol administered through the diet; cited from earlier work

C=C1[C@H](O)CC(=C/C=C2\CCC[C@@]3(C)C2CCC3[C@@H](C)CCCC(C)(C)O)C[C@H]1O (stereo partly drawn) [2MD, 2-methylene-19-nor-(20S)-1α,25-dihydroxyvitamin D3]
serum calcium, 2MD alone (vitamin D-deficient rats; 1 ng 2MD/kg bw): unaffected

C=C1/C(=C\C=C2/CCC[C@]3(C)[C@@H]([C@H](C)CCCC(C)(C)O)CC[C@@H]23)C[C@@H](O)C[C@@H]1O [calcitriol, 1α,25-(OH)2D3]
hypercalcemia accompanying treatment [1]: severe hypercalcemia always accompanied this treatment | proteinuria [1]: completely prevents proteinuria

C[C@@H](NCCCc1cccc(C(F)(F)F)c1)c1cccc2ccccc12 [cinacalcet, (R)—N-[1-(1-naphthyl)ethyl]-3-[3-(trifluoromethyl)phenyl] propan-1-amine]
decrease of serum calcium, cinacalcet alone (vitamin D-deficient rats; cinacalcet alone): 0.5 mg%
